Laboratory results: US5726208A, “Heterocyclic tertiary amines” (Adir et Compagnie, priority 1995, dated 1998)

System: D2 receptor
Test: Binding to cloned D2 receptors ([125I]-iodosulpride displacement)
Conditions: reference aminotetralines
Method: Pharmacological study STUDIES OF THE BINDING OF THE COMPOUNDS OF THE INVENTION TO D2 AND D3 RECEPTORS
The results are expressed in the form of pKi (pKi =-logKi).
The Ki value is derived from the formula Ki =IC50 /(1+L/KD), where L is the concentration of [^125 I]-iodosulpride used in the experiment and Kd its dissociation constant.
The IC50, which represents the concentration that gives a 50% inhibition of the binding of the radioligand, is calculated by non-linear regression (Simplex method).

CCCN[C@@H]1CCc2c(OC)cccc2[C@@H]1C [(+) AJ 76]
selectivity (D3 versus D2): 2

CCCN(CCC)[C@@H]1CCc2c(OC)cccc2[C@@H]1C [(+) UH 232]
selectivity (D3 versus D2): 5
